Among the data in patent US20260103468A1, “FUSED RING COMPOUND, PHARMACEUTICAL COMPOSITION, AND USE THEREOF” (Hainan Simcere Zaiming Pharmaceutical Co., Ltd., priority 2022, published 2026) are DC50, Dmax and IC50 values, retold here.

The structures appear in SMILES notation.

The target in one experiment is T1, GSPT1 protein (Homo sapiens, UniProt P15170+Q96SW2).
T1 construct: endogenous in cells; host or cells: CAL51
In words: Degradation activity experiment on intracellular GSPT1 protein in CAL51 cells. The class given is cell-based. Conditions: anti-GSPT1/anti-α-Tubulin antibody staining in 384-well plate; for DC50: 6 hours; for Dmax: CAL-51, 6 hours, read-out: Maximum degradation rate (%) (GSPT1 protein degradation activity). How it is done:
The medium of CAL51 (CBP60360, Kebai) was removed, and PBS was added for rinsing once, and then digested with trypsin (Trypsin-EDTA (0.25%)) for 5 minutes. After digestion, 10 mL of complete medium (DMEM containing 10% FBS[…]) was added to neutralize trypsin, and the cells were then pipetted, collected, centrifuged at 300 g for 5 min. The cell density was adjusted to 266,667 cells/mL. 30 μL of the cell suspension was added to a 384 well plate. The plate was centrifuged at 300 g for 1 min and then incubated in a cell incubator overnight.
Compounds of the present disclosure were dissolved in DMSO, with a mother liquor storage concentration of 10 mM. The gradient dilution of compound mother liquor was carried out through the dose-response program of the compound dilution and loading instrument. The total experimental volume of the dilution program was 30 μL, with the initial concentration of 100 μM for the tested compound. A4-fold dilution was performed, resulting in 10 concentration points. The positive control compound was CC-885 in Test Example 2, the negative control was DMSO, and the DMSO content of all wells was 0.3%. After the procedure, then the plate was centrifuged and incubated in a carbon dioxide incubator for 6 hours.
After 6 hours of administration, the supernatant was discarded, the cells were washed with 50 μL of cold PBS, and then the cells were fixed with 50 μL/well of 4% paraformaldehyde/universal tissue fixation solution, and incubated at room temperature for 1 hour. The paraformaldehyde was discarded and 50 μL/well PBS-0.1% Triton X-100 was added to permeate cells for 30 minutes. PBS-Triton was discarded, 50 μL/well of blocking buffer (927-70001, Li-COR) was added, and incubated at room temperature for 1 hour. The blocking buffer was removed, and 30 μL/well of rabbit anti-GSPT1 (1: 300) (HPA052488, Sigma), mouse anti-α-Tubulin (1: 2000) (T6074, Sigma) primary antibody mixed antibody was added, and incubated at 4° C. overnight. The well was washed with 50 μL/well PBST (PBS containing 0.1% Tween-20) and soaked for 10 minutes per round for 4 times. 30 μL/well of goat anti-mouse 680RD (P/N 925-68070, Li-COR) and goat anti-rabbit 800CW (P/N 925-32211, Li-COR) secondary antibody mixture (1: 5000) was added and incubated at room temperature away from light for 1-1.5 hours. The well was washed with 50 μL/well PBST and soaked for 10 min per round for 4 times. The centrifuge plate was turned upside down, covered with toilet paper, then centrifuged at 1000 rpm/min for 1 minute, and the bottom of the plate was dried. A 384-well plate was scanned with an Azure WB imaging system (Sapphire) and the data was read.
The GSPT1 protein degradation activity of the compounds of the present disclosure in CAL51 cells was measured by the above assay, and the protein degradation rate of each sample well was calculated based on the raw data.
[formula] • Sample reading: refers to the signal value of the experimental group; • DSMO reference mean reading; refers to the mean signal value of the DSMO control group. No test compound was added to the […], and other operations were consistent with those of the experimental group.
Data analysis was performed by GraphPad Prism 9. The concentration-effect curves were obtained using a nonlinear four-parameter fitting, and DC50 of compounds was calculated:
[formula] • Wherein: • X: Log of the compound concentration. • Y: degradation rate (%); • Bottom is the minimum percent degradation: • Top is the maximum percent degradation: • HillSlope is the slope coefficient of the curve.

Experiment [1] addresses T2, GST-labeled human Cereblon WT (Homo sapiens, UniProt Q96SW2).
T2 construct: purchased
Kind of experiment: Cereblon binding experiment (HTRF Human Cereblon Binding Kit). Conditions: HTRF competition with XL665-labeled lenalidomide tracer; incubated at room temperature for 3 hours; read-out: IC50 (binding ability to Cereblon). From the text: The detection kit (HTRF Human Cereblon Binding Kits) used in the experiment was a detection method for quantitative measurement of Cereblon WT ligand using HTRF® technology. The detection principle was based on HTRF technology. The specifically labeled GST antibody (Eurum Cryptate, donor) bound to the GST-labeled human Cereblon WT ligand and the XL665-labeled lenalidomide tracer (acceptor) at the same time. The donor was excited with a light source to initiate fluorescence resonance energy transfer (FRET) to the acceptor. The acceptor emitted fluorescence at a specific wavelength of 665 nm. After adding the compound, the compound competed with XL665-labeled lenalidomide to prevent FRET. The FRET signal ratio was inversely proportional to the compound concentration.
Compounds of the present disclosure were dissolved in DMSO, with a mother liquor storage concentration of 10 mM. […] The HTRF signal in each well was measured using an Envision plate reader. […]
The ratio of acceptor and donor emission signals was calculated for each well: […]
Data analysis was performed by GraphPad Prism 9. The concentration-effect curves were obtained using a nonlinear four-parameter fitting, and IC50 of compounds was calculated: […]
The binding ability of the compounds of the present disclosure to Cereblon was determined by the above assay, and the measured IC50 values were shown in Table 1.
In general terms: TR-FRET usually uses a lanthanide donor and a delayed reading to cut background.

Another experiment concerns CAL51 cells. In words: Anti-proliferative activity experiment on CAL51 cells (CellTiter-Glo 3D). It is filed as cell-based. Conditions: Homo sapiens, CAL-51, 72 h, CAL51 cell spheroid, incubated 3 days. On the procedure: The medium of target cells CAL51 (CBP60360, Kebai) was removed, and PBS was added for rinsing once, and then digested with trypsin (Trypsin-EDTA (0.25%)) for 5 minutes. After digestion, 10 mL of complete medium (DMEM containing 10% FBS) was added to neutralize trypsin, and the cells were pipetted and collected, then centrifuged at 300 g for 5 min, counted. The cell density was adjusted to 40,000 cells/mL. 90 μL cell suspension was added to a 96-well low adsorption plate. 200 μL of PBS was added to the edge wells. The plate was centrifuged at 300 g for 5 minutes to form cell spheroid, which were then incubated in a cell incubator overnights. […]
The cells were removed from the incubator and returned to room temperature for […]. 50 μL of CellTiter-Glo® 3D Cell Viability Assay reagent was added, and the plate was shaked and mixed well for 10 minutes, and then the plate was read with an Envision plate reader.
The anti-proliferative activity of the compound of the present disclosure on CAL51 cells was measured by the above assay, and the cell growth inhibition rate of each sample well was calculated based on the raw data.
[formula] • Sample reading: refers to the signal value of the experimental group; • DMSO reference mean reading: refers to the mean signal value of the DMSO control group. […]
For orientation: In ATP-based viability assays light output follows the ATP content of the culture.

T1 sequence (P15170 whole entry): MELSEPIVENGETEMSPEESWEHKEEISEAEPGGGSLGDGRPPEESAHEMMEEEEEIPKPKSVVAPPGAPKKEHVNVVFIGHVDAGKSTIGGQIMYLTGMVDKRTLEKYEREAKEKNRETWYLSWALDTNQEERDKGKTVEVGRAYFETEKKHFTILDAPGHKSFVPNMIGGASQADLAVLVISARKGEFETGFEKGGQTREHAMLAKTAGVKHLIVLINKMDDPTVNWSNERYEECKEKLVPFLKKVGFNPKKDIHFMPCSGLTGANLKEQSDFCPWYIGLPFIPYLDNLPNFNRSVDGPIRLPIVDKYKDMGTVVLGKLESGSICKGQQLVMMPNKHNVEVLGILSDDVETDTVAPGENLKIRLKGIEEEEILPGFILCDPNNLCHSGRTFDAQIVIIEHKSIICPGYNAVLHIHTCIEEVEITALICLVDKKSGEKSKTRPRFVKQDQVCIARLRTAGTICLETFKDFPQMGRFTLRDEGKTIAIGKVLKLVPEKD
T1 sequence (Q96SW2 whole entry): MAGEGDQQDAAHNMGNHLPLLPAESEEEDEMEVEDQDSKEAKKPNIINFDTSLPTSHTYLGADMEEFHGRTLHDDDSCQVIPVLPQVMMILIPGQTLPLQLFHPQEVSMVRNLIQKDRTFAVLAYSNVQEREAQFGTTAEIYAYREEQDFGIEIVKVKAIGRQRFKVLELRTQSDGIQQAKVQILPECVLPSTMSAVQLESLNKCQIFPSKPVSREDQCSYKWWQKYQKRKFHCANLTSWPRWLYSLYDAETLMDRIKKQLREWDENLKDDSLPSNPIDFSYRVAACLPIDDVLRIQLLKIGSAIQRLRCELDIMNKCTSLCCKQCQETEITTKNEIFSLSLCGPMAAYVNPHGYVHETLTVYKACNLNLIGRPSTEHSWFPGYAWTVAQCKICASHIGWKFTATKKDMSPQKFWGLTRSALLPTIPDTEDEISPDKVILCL
T1 sequence (Q16531 whole entry partner): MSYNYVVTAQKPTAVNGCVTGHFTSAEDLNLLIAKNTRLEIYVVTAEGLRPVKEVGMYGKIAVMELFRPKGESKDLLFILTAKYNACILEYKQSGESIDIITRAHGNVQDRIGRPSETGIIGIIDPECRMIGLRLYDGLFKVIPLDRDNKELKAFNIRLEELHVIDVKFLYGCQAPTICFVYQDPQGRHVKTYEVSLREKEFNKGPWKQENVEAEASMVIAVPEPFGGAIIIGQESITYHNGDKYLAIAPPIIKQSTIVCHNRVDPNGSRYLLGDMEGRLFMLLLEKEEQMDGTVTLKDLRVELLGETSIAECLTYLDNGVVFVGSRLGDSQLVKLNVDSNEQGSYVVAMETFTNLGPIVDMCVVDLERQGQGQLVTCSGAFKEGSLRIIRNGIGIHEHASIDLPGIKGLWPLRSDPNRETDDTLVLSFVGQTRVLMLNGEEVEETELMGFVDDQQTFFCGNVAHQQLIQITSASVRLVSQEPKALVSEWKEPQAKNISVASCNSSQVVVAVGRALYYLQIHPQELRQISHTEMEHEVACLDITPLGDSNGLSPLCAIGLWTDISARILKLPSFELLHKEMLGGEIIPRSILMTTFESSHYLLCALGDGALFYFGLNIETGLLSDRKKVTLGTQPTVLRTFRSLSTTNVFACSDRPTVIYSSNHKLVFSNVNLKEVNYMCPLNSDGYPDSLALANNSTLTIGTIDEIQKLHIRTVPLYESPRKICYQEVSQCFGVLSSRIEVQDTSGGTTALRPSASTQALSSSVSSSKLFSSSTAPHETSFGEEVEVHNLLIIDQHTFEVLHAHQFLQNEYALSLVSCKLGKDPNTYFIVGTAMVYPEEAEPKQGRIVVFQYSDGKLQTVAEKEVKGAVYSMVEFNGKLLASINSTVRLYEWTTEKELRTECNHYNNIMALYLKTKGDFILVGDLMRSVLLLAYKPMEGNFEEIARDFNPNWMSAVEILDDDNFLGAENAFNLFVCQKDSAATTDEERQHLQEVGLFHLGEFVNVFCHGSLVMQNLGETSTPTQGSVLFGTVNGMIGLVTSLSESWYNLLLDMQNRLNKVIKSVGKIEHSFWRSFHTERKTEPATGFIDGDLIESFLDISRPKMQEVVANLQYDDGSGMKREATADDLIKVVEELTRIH
T2 sequence (Q96SW2 whole entry): as the sequence (Q96SW2 whole entry) above

What is called DC50 is the concentration giving 50% degradation. A low value points to degradation at low concentration. Turning to `CNc1cc(C#CC(=O)NCc2ccc3c(c2)cc2n3C(=O)N(C3CCC(=O)NC3=O)C2)ccc1C` (centres unmarked) [Compound 4, N-((2-(2,6-dioxopiperidin-3-yl)-3-oxo-2,3-dihydro-1H-imidazo [1,5-a]indol-7-yl)methyl)-3-(4-methyl-3-(methylamino)phenyl) propinamide], at GSPT1 protein, the DC50 was found to be 144 nM and the Dmax is 85.3%.

Regarding `CNCCOCCc1cc(NC(=O)OCc2ccc3c(c2)cc2n3C(=O)N(C3CCC(=O)NC3=O)C2)ccc1Cl` (centres unmarked) [Compound 9, (2-(2,6-dioxopiperidin-3-yl)-3-oxo-2,3-dihydro-1H-imidazo [1,5-a]indol-7-yl) methyl-(4-chloro-3-(2-(2-(methylamino)ethoxy)ethyl)phenyl) carbamate], at GSPT1 protein, the DC50 is 1460 nM and the Dmax was 69.6%.

By IC50 is commonly meant the midpoint of a concentration-inhibition curve. As to `O=C1CCC(N2Cc3cc4ccccc4n3C2=O)C(=O)N1` (centres unmarked) [Compound 1, 3-(3-oxo-1H-imidazo [1,5-a]indol-2 (3H)-yl) piperidine-2,6-dione], the IC50 in experiment [1] is 1000 to 10000 nM.

As to `CNc1ccc(NC(=O)OCc2ccc3c(c2)cc2n3C(=O)N(C3CCC(=O)NC3=O)C2)cc1Cl` (centres unmarked) [Compound 8, (2-(2,6-dioxopiperidin-3-yl)-3-oxo-2,3-dihydro-1H-imidazo [1,5-a]indol-7-yl) methyl-(3-chloro-4-(methylamino)phenyl) carbamate], on GSPT1 protein, it took 13 nM to reach half-maximal degradation (DC50) and the Dmax turned out to be 94.6%.

For the compound `Cc1ccc(NC(=O)OCc2ccc3c(c2)cc2n3C(=O)N(C3CCC(=O)NC3=O)C2)cc1Cl` (centres unmarked) [Compound 3, (2-(2,6-dioxopiperidin-3-yl)-3-oxo-2,3-dihydro-1H-imidazo [1,5-a]indol-7-yl) methyl-(3-chloro-4-methylphenyl) carbamate], at GSPT1 protein, half-maximal degradation (DC50) was put at 25.4 nM and the Dmax came out at 98.3%. This compound had an IC50 in the experiment on CAL51 cells of 39 nM.

As for `Cc1ccc(NC(=O)NCc2ccc3c(c2)cc2n3C(=O)N(C3CCC(=O)NC3=O)C2)cc1Cl` (centres unmarked) [Compound 2, 1-(3-chloro-4-methylphenyl)-3-((2-(2,6-dioxopiperidin-3-yl)-3-oxo-2,3-dihydro-1H-imidazo [1,5-a]indol-7-yl)methyl) urea], on GSPT1 protein, half-maximal degradation (DC50) was put at 86.3 nM and the Dmax was determined as 95.4%.

In the case of `O=C1CCC(N2Cc3nc4ccccc4n3C2=O)C(=O)N1` (centres unmarked) [Compound 14, 3-(1-oxo-1H-benzo [d]imidazo [1,5-a]imidazol-2 (3H)-yl) piperidine-2,6-dione], in experiment [1], the IC50 lay within 1000 to 10000 nM.

For the compound `Cc1ccc(NC(=O)OCc2cccc3c2cc2n3C(=O)N(C3CCC(=O)NC3=O)C2)cc1Cl` (centres unmarked) [Compound 13, 2-(2,6-dioxopiperidin-3-yl)-3-oxo-2,3-dihydro-1H-imidazo [1,5-a] indol-8-yl) methyl (3-chloro-4-methylphenyl) carbamate], on GSPT1 protein, half-maximal degradation (DC50) was put at 135 nM and the Dmax was determined as 96.3%.

As for `O=C1CCC(N2Cc3cc4cc(COC(=O)Nc5cc(OC(F)(F)F)ccc5F)ccc4n3C2=O)C(=O)N1` (centres unmarked) [Compound 5, 2-(2,6-dioxopiperidin-3-yl)-3-oxo-2,3-dihydro-1H-imidazo [1,5-a] indol-7-yl) methyl (2-fluoro-5-trifluoromethoxy) phenyl) carbamate], at GSPT1 protein, the DC50 stood at 20 nM and the Dmax is 96.7%.
